# Data as given in US5011949A, “Ascorbic acid derivative” (Nippon Hypox Laboratories, Inc., priority 1989, dated 1991).
# Legend:
# [1] = Antioxidant action examined by using stable free radicals: reduction activity of DPPH (M. S. Blois method), absorbance at 517 nm; type: biochemical; conditions: 1 mM DPPH in ethanol, after 20 minutes, difference from solvent control (0.5% or less DMF), read-out: 50% radical eliminating concentration
# Experimental: Test Example 1 (Antioxidant Action Examined by Using Stable Free Radicals)
# Reduction activity of α,α-diphenyl-β-picrylhydrazyl (DPPH) which was a stable free radical was examined according to the M. S. Blois method (nature, vol. 181, page 1199, 1958) and used as an index to antioxidant action. Thus, specimens were added to 3 ml of a 1 mM DPPH solution in ethanol, and absorbance at a wavelength of 517 nm was measured using a spectrophotometer after 20 minutes. The difference in absorbance from the solvent control [0.5% or less of dimethylformamide (DMF)]was taken as the reduction activity.
# [2] = Effects on formazan formation in the xanthine-xanthine oxidase-Nitrotetrazolium Blue system (superoxide anion radicals); type: biochemical; conditions: for Inhibition ratio (%) of formazan formation: pH 7.8, 30° C., 10 min; for inhibition of formazan formation (in words): from Table-4, 0.5 mM and 4 mM
# Experimental: Test Example 2 (Effects on Formazan Formation in the Xanthine-xanthine Oxidase-Nitrotetrazolium Blue System)
# Specimens were added to a 0.05 M phosphoric acid buffer solution (pH 7.8) containing xanthine, EDTA 2Na and Nitrotetrazolium Blue (NTB) so as to provide the respective final concentrations of 5×10^-5 M, 1×10^-4 M and 5×10^-4 M and warmed at 30° C. for 30 minutes. Xanthine oxidase (manufactured by Sigma Corp.) was added, and the resulting mixtures were warmed at 30° C. for 10 minutes to colorimetrically determine formazan formed by superoxide anion radicals. The inhibition ratio of formazan formation was determined from the results at concentrations of 0.5 mM and 4 mM of each specimen.
SMILES,IC50 [1],also measured
CCCCCCCCOC1=C(O)[C@@H]([C@@H](O)CO)OC1=O [Compound 303],26 µM,–
O=C(O)CCCOC1=C(O)[C@@H]([C@@H](O)CO)OC1=O [Compound 307],33 µM,–
CCCCOC(=O)COC1=C(O)[C@@H]([C@@H](O)CO)OC1=O [Compound 309],28 µM,–
CCOC(=O)CCCOC1=C(O)[C@@H]([C@@H](O)CO)OC1=O [Compound 306],29 µM,–
CCCCCCCCCCCCCCCCCCOC1=C(O)[C@@H]([C@@H](O)CO)OC1=O [Compound 301],28 µM,–
CCCCCCCCCCCCOC1=C(O)[C@@H]([C@@H](O)CO)OC1=O [Compound 302],26 µM,–
O=C1O[C@H]([C@@H](O)CO)C(O)=C1OCc1ccccc1 [Compound 305],29 µM,–
CCCCOC(=O)COC1=C(O)[C@@H]([C@@H]2COC(C)(C)O2)OC1=O [Compound 205],30 µM,–
CC1(C)OC[C@@H]([C@H]2OC(=O)C(OCCCC(=O)O)=C2O)O1 [Compound 203],28 µM,–

# Stronger by IC50 [1], values ahead:
IC50 [1],SMILES,also measured
25 µM,CCOC(=O)C(C)OC1=C(O)C(C2COC(C)(C)O2)OC1=O (stereo not shown) [Compound 204],–
25 µM,CCOC(=O)C(C)OC1=C(O)[C@@H]([C@@H](O)CO)OC1=O (stereo partly shown) [Compound 308],–
17 µM,"CC(=O)COC1=C(O)[C@@H]([C@@H](O)CO)OC1=O [Compound 310, L-2-O-methylcarbomethylascorbic acid]",–
17 µM,CCCCOC1=C(O)[C@@H]([C@@H](O)CO)OC1=O [Compound 304],–
16 µM,CCOC(=O)CCCOC1=C(O)[C@@H]([C@@H]2COC(C)(C)O2)OC1=O [Compound 202],–
14 µM,"CC(=O)COC1=C(O)[C@@H]([C@@H]2COC(C)(C)O2)OC1=O [Compound 206, L-5,6-O-isopropylidene-2-O-methylcarbomethylascorbic acid]",Inhibition ratio (%) of formazan formation ([2]; 0.5 mM): 17.8%; Inhibition ratio (%) of formazan formation ([2]; 4 mM): 55.5%; inhibition of formazan formation (in words) [2]: remarkably inhibited formazan formation
14 µM,CCCCOC1=C(O)[C@@H]([C@@H]2COC(C)(C)O2)OC1=O [Compound 201],Inhibition ratio (%) of formazan formation ([2]; 0.5 mM): 9.1%; Inhibition ratio (%) of formazan formation ([2]; 4 mM): 19.1%; inhibition of formazan formation (in words) [2]: remarkably inhibited formazan formation
